Assay results from patent US20110105623A1 (Biogenic Innovations, LLC, priority 2009, published 2011).
Several values for one entry are separate records, joined by “and”; a condition that tells them apart may be missing. Identical values can stand only once. Entries after “also recorded” stand apart in the source; their conditions may differ. Like-named read-outs stand apart in the source and are kept apart here.

Experiments:
[1] = system: Swine-like H1N1 Influenza A virus strain A/California/04/2009; type: cell-based
Salmonella typhimurium = assay: USP AET, MSM in TSB; type: cell-based; set-up: key: Colonies too numerous to count (TNTC); details: 48 hrs
[2] = system: ATCC strain 8739 Escherichia coli; assay: Bromcresol Purple color change with MSM; type: cell-based
Description: To investigate whether MSM functions as a carrier/transporter, the ability of MSM to transport Bromcresol into the E. coli was evaluated. Bromcresol Purple is an indicator dye that turns yellow in the presence of E. coli bacteria. It is non-toxic to the organism. […] All concentrations were plated out to 10^−7 dilutions to ascertain the log reduction.
Flake OptiMSM was weighed out using a certified Mettler Toledo AG245 balance SN: 1115210833 and aliquoted for each concentration. […] Tubes were cooled to room temperature which was approximately 20° C. All tubes were then spiked with the same dilution of Escherichia coli that gave a level of colony forming units at 6.0×10^6/mL (6.8). The tubes were then incubated at 25° C. Daily observation for color change was performed during the first seven days. The tubes were mixed periodically to ensure that the OptiMSM was well equilibrated at all times. A positive and negative control was ascertained.

[3] = system: Acidophilus plus Bifidus milk microorganisms; assay: Recovery from Acidophilus plus bifidus milk fortified with MSM; type: cell-based; details: for Lag Recovery of Lactobacillus acidophilus in Milk fortified with MSM Day 14: A/B 2.5 MSM; for Lag Recovery of Lactobacillus acidophilus in Milk fortified with MSM Day 7 / Lag Recovery of Lactobacillus acidophilus in Milk fortified with MSM Day 21 / Lag Recovery of Lactobacillus acidophilus in Milk fortified with MSM Day 28: A/B […] MSM
Pseudomonas aeruginosa = assay: USP AET, MSM in TSB; type: cell-based; set-up: key: Colonies too numerous to count (TNTC); details: 48 hrs
Source text: (§1) Compounds or formulated products having antimicrobial activity may be evaluated with the United States Pharmacopeia (USP) Antimicrobial Effectiveness Test (AET). The AET involves the addition of specified microorganisms (Candida albicans, Aspergillus niger, Escherichia coli, Pseudomonas aeruginosa and Staphylococcus aureus) directly to a test product at relatively high concentrations to simulate contamination. The product is held for one month, with weekly analysis of microorganism levels. Depending on the route of administration of a product, satisfaction of the AET generally requires a 1 to 3 log reduction in bacteria from initial levels, which should occur in one to two weeks, with no further increase in bacteria after two weeks. For yeast and mold, no increase from the initial inoculums level is permitted.
(§2) Inoculations were made using Candida albicans, Aspergillus niger, Escherichia coli, Pseudomonas aeruginosa and Staphylococcus aureus. Tryptic soy broth (TSB) was used as the culturing media. […] The inoculated media was held for one month, during which time the added microorganisms were enumerated weekly to determine if they were growing, dying off, or remaining near the initial inoculation level. Data points were measured in triplicate at 48 hours, 3, 5, 14, 20, 28, and 30 days. The acceptance criteria for antimicrobial effectiveness are described in detail in the USP, herein incorporated by reference.

Escherichia coli = assay: USP AET, MSM in TSB; type: cell-based; set-up: key: Colonies too numerous to count (TNTC); details: 48 hrs
Source text: as §1, §2

E. coli [4] = assay: Log growth in Müller-Hinton media with or without NaCl; type: cell-based, Escherichia coli
Description: Standard Müller-Hinton media was compared to Müller-Hinton media supplemented with NaCl to the same level as the saline-based media of Example 4. […] After inoculation of each MSM-containing media type with 1.9×10^7 cfu/mL of E. coli, the cultures were incubated at 35° C. for seven days. Aliquots of each culture were taken at 24 and 48 hours, as well as 7 days.

E. coli [5] = assay: Log growth in MSM-lactose broth with or without DMSO; type: cell-based, Escherichia coli; details: 24 hours
Description: Lactose broth, free of both NaCl and of proteins, was used as the media in this experiment. […] Each media composition was initially inoculated with 6.75×10^6 cfu/mL of E. coli. Cultures were incubated at 25° C. for seven days. Aliquots of each culture were taken after 24 hours of culturing and at the end of seven days in culture. Aliquots were serially diluted (with Modified Letheen diluent) and plated on trypto-soy agar plates.

[6] = system: MDCK cells (ATCC # CCL-34); assay: Cytotoxicity of MSM; type: cell-based, Canis; details: for Test Product Cytotoxicity (CPE): MDCK
Source text: Determination of test product cytotoxicity.
B. Toxicity Control for Pre-Treatment Test.

Substance: Methylsulfonylmethane [MSM]
- Average Log Stimulation [1]: 0.17log10
- Average Percent Stimulation [1]: 32.39%
- Average TCID50 [1]: 3.67log10 and 4.42log10 and 4.67log10 and 5.00log10 and 4.58log10 and 4.17log10
- CPE at dilution −6 [1]: 0000
- CPE at dilution −7 [1]: 0000
- Log Stimulation [1]: 0.17log10
- Percent Stimulation [1]: 32.39%
- TCID50 [1]: 3.75log10 and 3.50log10 and 4.00log10 and 4.50log10 and 4.25log10 and 4.75log10 and 5.00log10
- average percent reduction [1]: 93.08% and 90.00% and 61.10% and 78.12%
- average log10 reduction ([1]; 1% MSM): 0.25 log10
- average percent reduction ([1]; 1% MSM): 43.77%
- average log10 reduction ([1]; 2% MSM): 0.41 log10
- average percent reduction ([1]; 2% MSM): 61.10%
- average log10 reduction ([1]; 3% MSM): 0.00 log10
- average percent reduction ([1]; 3% MSM): 00.00%
- average log10 reduction ([1]; 4% MSM): 0.16 log10
- average percent reduction ([1]; 4% MSM): 30.82%
- Response, % reduction ([1]; Dose 5.312 mM (log dose 0.7252581)): 91.680% and 53.230% and 73.700%
- Response, % reduction ([1]; Dose 31.871 mM (log dose 1.503396)): 0.000%
- Response, % reduction ([1]; Dose 53.118 mM (log dose 1.725242)): 53.230% and 73.700%
- HillSlope, best-fit value ([1]; log(inhibitor) vs. normalized response, variable slope): 0.2135
- LogIC50, best-fit value ([1]; log(inhibitor) vs. normalized response, variable slope, dose in mM): 0.7087
- AET microorganism count (Salmonella typhimurium; 1:100 dilution of MSM): TNTC
- AET microorganism count (Salmonella typhimurium; 1:1000 dilution of MSM): TNTC
- color change of the broth ([2]; 5-7% MSM, Day one): color change of the broth to yellow
- color change of the broth ([2]; 8% MSM, Day one, Day three): slight clearing of color; also recorded: turning to the typical yellow color
- color change of the broth ([2]; 9% MSM, Day 7): turning to a yellow color
- color change of the broth ([2]; 10%-16% MSM, Day 7, 14, 30): No color change; also recorded: no signs of change
- organism recovery, streaked on MacConkey agar ([2]; concentration tubes 10%-16% MSM, 72 hour incubation): No organisms were observed
- Lag Recovery of Lactobacillus acidophilus in Milk fortified with MSM Day 14 ([3]; Day 14-24): 13.35 logs
- Lag Recovery of Lactobacillus acidophilus in Milk fortified with MSM Day 14 ([3]; Day 14-48): 13.47 logs
- Lag Recovery of Lactobacillus acidophilus in Milk fortified with MSM Day 14 ([3]; Day 14-72): 13.43 logs
- Lag Recovery of Lactobacillus acidophilus in Milk fortified with MSM Day 7 ([3]; Day 7-24): 13.44 logs
- Lag Recovery of Lactobacillus acidophilus in Milk fortified with MSM Day 7 ([3]; Day 7-72): 12.77 logs
- Lag Recovery of Lactobacillus acidophilus in Milk fortified with MSM Day 21 ([3]; Day 21-24): 13.08 logs
- Lag Recovery of Lactobacillus acidophilus in Milk fortified with MSM Day 21 ([3]; Day 21-48): 12.08 logs
- Lag Recovery of Lactobacillus acidophilus in Milk fortified with MSM Day 21 ([3]; Day 21-72): 12.33 logs
- Lag Recovery of Lactobacillus acidophilus in Milk fortified with MSM Day 28 ([3]; Day 28-24): 12.67 logs
- Lag Recovery of Lactobacillus acidophilus in Milk fortified with MSM Day 28 ([3]; Day 28-48): 13.19 logs
- Lag Recovery of Lactobacillus acidophilus in Milk fortified with MSM Day 28 ([3]; Day 28-72): 12.00 logs
- Recovery of Lactobacillus acidophilus in Milk fortified with MSM Day 7, initial start data ([3]; Ac/Bf […] MSM, Day 7): 8.42 logs
- Recovery of Lactobacillus acidophilus in Milk fortified with MSM Day 14, initial start data ([3]; Ac/Bf […] MSM, Day 14-0): 3.70 logs
- Recovery of Lactobacillus acidophilus in Milk fortified with MSM Day 21, initial start data ([3]; Ac/Bf […] MSM, Day 21): 3.37 logs
- Recovery of Lactobacillus acidophilus in Milk fortified with MSM Day 28, initial start data ([3]; Ac/Bf […] MSM, Day 28): 1.94 logs
- Day 7 log recovery growth rate increase from start time of zero ([3]; Ac/Bf […] MSM, Hour 0): 0.00 logs
- Day 14 log recovery growth rate increase from start time of zero ([3]; Ac/Bf […] MSM, Hour 0): 0.00 logs
- Day 21 log recovery growth rate increase from start time of zero ([3]; Ac/Bf […] MSM, Hour 0): 0.00 logs
- Day 7 log recovery growth rate increase from start time of zero ([3]; Ac/Bf […] MSM, Hour 24): 5.02 logs
- Day 14 log recovery growth rate increase from start time of zero ([3]; Ac/Bf […] MSM, Hour 24): 9.65 logs
- Day 21 log recovery growth rate increase from start time of zero ([3]; Ac/Bf […] MSM, Hour 24): 9.71 logs
- Day 7 log recovery growth rate increase from start time of zero ([3]; Ac/Bf […] MSM, Hour 48): −0.94 logs
- Day 14 log recovery growth rate increase from start time of zero ([3]; Ac/Bf […] MSM, Hour 48): 0.12 logs
- Day 21 log recovery growth rate increase from start time of zero ([3]; Ac/Bf […] MSM, Hour 48): −1.00 logs
- Day 7 log recovery growth rate increase from start time of zero ([3]; Ac/Bf […] MSM, Hour 72): 0.27 logs
- Day 14 log recovery growth rate increase from start time of zero ([3]; Ac/Bf […] MSM, Hour 72): −0.04 logs
- Day 21 log recovery growth rate increase from start time of zero ([3]; Ac/Bf […] MSM, Hour 72): 0.25 logs
- Day 28 log recovery growth rate increase from start time of zero ([3]; Ac/Bf […] MSM, Time 0): 0.00 logs
- Day 28 log recovery growth rate increase from start time of zero ([3]; Ac/Bf […] MSM, Time 24): 10.73 logs
- Day 28 log recovery growth rate increase from start time of zero ([3]; Ac/Bf […] MSM, Time 48): 0.52 logs
- Day 28 log recovery growth rate increase from start time of zero ([3]; Ac/Bf […] MSM, Time 72): −1.19 logs
- AET microorganism count (Pseudomonas aeruginosa; 1:100 dilution of MSM): TNTC
- AET microorganism count (Pseudomonas aeruginosa; 1:1000 dilution of MSM): TNTC
- AET microorganism count (Escherichia coli; 1:100 dilution of MSM): TNTC
- AET microorganism count (Escherichia coli; 1:1000 dilution of MSM): TNTC
- log reduction from the initial inoculum (E. coli [4]; 24 hours, all media, MSM greater than 13%): approximately 1 log
- reduced E. coli growth by (E. coli [4]; 48 hours, MSM greater than 13%): 1-2 logs
- log reduction in E. coli (E. coli [4]; 7 days, FMHS, 12% MSM): 3 log
- reduced bacterial growth (E. coli [5]; 11% MSM): about 2.2 logs
- reduced bacterial growth (E. coli [5]; 16% MSM): about 1 log
- Test Product Cytotoxicity (CPE) ([6]; 0.5%): 00
- Test Product Cytotoxicity (CPE) ([6]; 1%): 00
- Test Product Cytotoxicity (CPE) ([6]; 2%): 00
- Test Product Cytotoxicity (CPE) ([6]; 3%): 00
- Test Product Cytotoxicity (CPE) ([6]; 4%): 00
- Test Product Cytotoxicity (CPE) ([6]; 5%): 00
- cytotoxic effect ([6]; MSM 6% through 0.5%): no visible cytotoxic effect
- TC50 ([6]; kills 50% of uninfected cells): approximately 7%
